Several values for one entry are separate records, joined by “and”; a condition that tells them apart may be missing. Equal entries are not always repeated. Marks after values point to notes of the source that are not given here.
Experiments:
Format in all cases: physicochemical
[1] = Quantum yields by absolute method using an integration sphere; conditions: for QLn^L/%: Ga6Ln(shi)9, solid state
Description: (§1) Luminescence data were collected on samples placed into 2.4 mm i.d. quartz capillaries or quartz Suprasil cells. Emission and excitation spectra were measured on a Horiba-Jobin-YvonFluorolog 3 spectrofluorimeter equipped with either a visible photomultiplier tube (PMT) (220-800 nm, R928P; Hamamatsu), a NIR solid-state InGaAs detector cooled to 77 K (800-1600 nm, DSS-IGA020L; Jobin-Yvon), or NIR PMTs (950-1450 nm, H10330-45; 950-1650 nm, H10330-75; Hamamatsu). All spectra were corrected for instrumental functions. Luminescence lifetimes were determined under excitation at 355 nm provided by a Nd:YAG laser (YG 980; Quantel), while the signal was detected in the NIR by the aforementioned PMT (H10330-75). The output signal from the detectors was then fed to a 500 MHz bandpass digital oscilloscope (TDS 754C; Tektronix) and then transferred to a PC for treatment with Origin 8®. Luminescence lifetimes are averages of at least three independent measurements. Quantum yields were determined with a Fluorolog 3 spectrofluorimeter according to an absolute method using an integration sphere (GMP SA). Each sample was measured several times under slightly different experimental conditions. Estimated experimental error for quantum yields determination is 10%.

[2] = Luminescence lifetimes under excitation at 355 nm; conditions: for τobs/μs: Ga8Ln2(shi)8, solid state
Description: as §1

[3] = Ligand triplet state from phosphorescence of Gd3+ analogues; conditions: T1 = 22 170 cm^−1; Ga4Ln(shi)4
Description: as §1
Phosphorescence can be observed by recording the signal emitted from Ga4Gd(shi)4 in time-resolved mode in the solid state at 77K upon excitation at 350 nm and using a 200 μS delay after the excitation flash (FIG. 9). The 0-0 component of this band represents the energy level of the ligand's triplet state (T1=22,170 cm^−1, 451 nm) which is attributed to the energy level responsible for the main contribution of the transfer to the Ln^3+. The T1 level is sufficiently high in energy to populate the excited states of a wide range of visible and NIR-emitting Ln^3+.
Since the Ga8Ln2(shi)8 dimer compounds were insoluble in all solvents, the solid state photophysical data alone were collected. As with the Ga4Gd(shi)4 compound, the Ga8Gd2(shi)8 complex may be used to examine the ligand-based photophysical properties. […] The solid state ligand phosphorescence was obtained at 77 K using an excitation wavelength of 350 nm and a 100 μs delay (FIG. 11). The profile of the phosphorescence is similar to that of Ga4Gd(shi)4 (FIG. 9), which was expected, since both compounds are formed by the same framework ligand, H3shi. The 0-0 transition was determined to be located at 455 nm, or 21 978 cm^−1. This triplet state energy is slightly lower than that of the Ga4Gd(shi)4 compound (22 170 cm^−1), but still is sufficiently high in energy to sensitize visible (Dy^3+, Tb^3+, Sm^3+) and/or NIR emitting (Dy^3+, Sm^3+, Ho^3+, Yb^3+, Pr^3+, Nd^3+, Er^3+) lanthanides.

[4] = Hydration number q from lifetimes in deuterated and protic solvents
Source text: One parameter that can be obtained from the recording of luminescence lifetimes is the hydration number q. […] This non-zero q value is particularly detrimental for the intensity of the luminescence (and to the corresponding quantum yield values) of NIR-emitting lanthanides since the overtones of high-energy vibrations of the solvent molecules create a route for non-radiative deactivation.

[5] = Emission spectra under ligand excitation at 350 nm; conditions: Ga8Ln2(shi)8, solid state
Description: as §1
Using an excitation wavelength of 350 nm, both visible and NIR emission arising from f-f transitions of different lanthanide ions can be observed (FIG. 13). In general, quantum yields are lower for Ga8Ln2(shi)8 MCs compared to […] (Table 3) except for Ho^3+ analogues which quantum yield is increased by 1.65 times reaching 3.3(1)·10^−3%.

[6] = from kCH3OH − kCD3OD, equations of footnotes b, c, e, g
[7] = Ga8Ln2(shi)8, solid state, excitation 350 nm

## [TmGa4(shi)4(C6H5CO2)4(C5H5N)(CH3OH)].C5H6N.0.5C5H5N [Ga4Tm(shi)4]
[1]; Ga4Ln(shi)4, Solid
  QLn^L (%) (visible): 0.02(1)^f %
[2]; Ga4Ln(shi)4, Solid
  τobs (μs): 1.47(1) μs
[3]
  ΔE (cm^−1), energy gap between ligand triplet state and Ln3+ emissive state: 820 cm⁻¹

## [YbGa6(shi)7(Hshi)(H2shi)(C6H16N)3(C5H5N)2].8H2O [Ga6Yb(shi)9]
[1]
  QLn^L/%: 0.65(3) %
[2]; Ga6Ln(shi)9, solid state
  τ/μs: 7.26(2) μs

## [Ga4Tb(shi)4(C6H5CO2)4(C5H5N)(CH3OH)].C5H6N.C5H5N.CH3OH
[1]; Ga4Ln(shi)4, CD3OD
  QLn^L (%) (visible): 28.6(1) %
[1]; Ga4Ln(shi)4, CH3OH
  QLn^L (%) (visible): 23.7(3) %
[1]; Ga4Ln(shi)4, Solid
  QLn^L (%) (visible): 34.7% and 34.7(1) %
[2]; Ga4Ln(shi)4, CD3OD
  τobs (μs): 1960(10) μs
[2]; Ga4Ln(shi)4, CH3OH
  τobs (μs): 1510(10) μs
[2]; Ga4Ln(shi)4, Solid
  τobs (μs): 1080(10) μs
[4]; [6]
  q (hydration number): 1.2^c
[4]; qTb = 10.0 × (kCH3OH − kCD3OD − 0.06), footnote d
  q (hydration number): 0.9^d
[3]
  ΔE (cm^−1), energy gap between ligand triplet state and Ln3+ emissive state: 1 770 cm^−1

## [Ga4Eu(shi)4(C6H5CO2)4(C5H5N)(CH3OH)].C5H6N.C5H5N.CH3OH
[1]; Ga4Ln(shi)4, Solid
  QLn^L (%) (visible): 1.59(4) · 10^−2%
[3]
  ΔE (cm^−1), energy gap between ligand triplet state and Ln3+ emissive state: 4 910 cm^−1

## [Ga8Tb2(shi)8(isophthalate)4(DMF)6].8DMF.H2O
[1]; [7]
  QLn^L (%) (visible): 31.2(2) %
[2]
  τobs/μs: 1410(1) μs
[5]
  λem/nm: 545 nm

## [Ga8Ho2(shi)8(isophthalate)4(DMF)6].8DMF.2H2O
[1]; [7]
  QLn^L (%) (NIR): 3.3(1) · 10^−3%
[2]
  τobs/μs: 0.032(1) μs
[5]
  λem/nm: 978 nm

## [HoGa6(shi)7(Hshi)(H2shi)(C6H16N)3(C5H5N)2].8H2O [Ga6Ho(shi)9]
[1]
  QLn^L/%: 1.1(2) · 10^−3%
[2]; Ga6Ln(shi)9, solid state
  τ/μs: 0.037(1) μs

## [ErGa6(shi)7(Hshi)(H2shi)(C6H16N)3(C5H5N)2].6H2O [Ga6Er(shi)9]
[1]
  QLn^L/%: 7.1(2) · 10^−3%
[2]; Ga6Ln(shi)9, solid state
  τ/μs: 0.905(8) μs

## [YbGa4(shi)4(C6H5CO2)4(C5H5N)(CH3OH)].C5H6N.C5H5N.CH3OH [Ga4Yb(shi)4]
[1]; Ga4Ln(shi)4, CD3OD
  QLn^L (%) (NIR): 4.29(1) %
[1]; Ga4Ln(shi)4, CH3OH
  QLn^L (%) (NIR): 0.26(1) %
[1]; Ga4Ln(shi)4, Solid
  QLn^L (%) (NIR): 5.88(2) %
[2]; Ga4Ln(shi)4, CD3OD
  τobs (μs): 36.6(1) μs
[2]; Ga4Ln(shi)4, CH3OH
  τobs (μs): 2.06(4) μs
[2]; Ga4Ln(shi)4, Solid
  τobs (μs): 55.7(3) μs
[4]; [6]
  q (hydration number): 0.7^g
[3]
  ΔE (cm^−1), energy gap between ligand triplet state and Ln3+ emissive state: 11 870 cm^−1

## [HoGa4(shi)4(C6H5CO2)4(C5H5N)(CH3OH)].C5H6N.C5H5N.CH3OH [Ga4Ho(shi)4]
[1]; Ga4Ln(shi)4, Solid
  QLn^L (%) (NIR): 2.0(2)·10^−3%
[2]; Ga4Ln(shi)4, Solid
  τobs (μs): 0.029(1) μs
[3]
  ΔE (cm^−1), energy gap between ligand triplet state and Ln3+ emissive state: 6 670 cm^−1

## [Ga4Sm(shi)4(C6H5CO2)4(C5H5N)(CH3OH)].C5H6N.C5H5N.CH3OH
[1]; Ga4Ln(shi)4, CD3OD
  QLn^L (%) (NIR): 0.298(1) %
  QLn^L (%) (visible): 2.33(5) %
[1]; Ga4Ln(shi)4, CH3OH
  QLn^L (%) (NIR): 2.65(6) · 10^−2%
  QLn^L (%) (visible): 0.252(1) %
[1]; Ga4Ln(shi)4, Solid
  QLn^L (%) (NIR): 0.450(4) %
  QLn^L (%) (visible): 2.46(8) %
[2]; Ga4Ln(shi)4, CD3OD
  τobs (μs): 255(1) μs
[2]; Ga4Ln(shi)4, CH3OH
  τobs (μs): 27.6(1) μs
[2]; Ga4Ln(shi)4, Solid
  τobs (μs): 148(1) μs
[4]; [6]
  q (hydration number): 0.8^b
[3]
  ΔE (cm^−1), energy gap between ligand triplet state and Ln3+ emissive state: 4 270 cm^−1

## [Ga8Yb2(shi)8(isophthalate)4(DMF)6].8DMF.3H2O
[1]; [7]
  QLn^L (%) (NIR): 2.43(6) %
[2]
  τobs/μs: 30.5(1) μs
[5]
  λem/nm: 980 nm

## [DyGa4(shi)4(H2shi)2(C5H5N)4(NO3)].(C5H5N)2 [Ga4Dyshi6]
[1]; solid state Ga4Ln(shi)6, only Dy
  QLn^L/% VIS (only Dy): 0.222(6) (only Dy) %
[1]; solid state Ga4Ln(shi)6, total
  QLn^L/% VIS (total): 0.308(8) (total) %
[2]; solid state Ga4Ln(shi)6
  τ/μs: 3.36(6) μs

## [TbGa4(shi)4(H2shi)2(C5H5N)4(NO3)].(C5H5N)2 [Ga4Tbshi6]
[1]; solid state Ga4Ln(shi)6
  QLn^L/% VIS: 11.3(5) %
[2]; solid state Ga4Ln(shi)6
  τ/μs: 509(7) μs

## [NdGa6(shi)7(Hshi)(H2shi)(C6H16N)3(C5H5N)2].7H2O [Ga6Nd(shi)9]
[1]
  QLn^L/%: 0.171(5) %
[2]; Ga6Ln(shi)9, solid state
  τ/μs: 0.71(1) μs

Reference: patent US10562920B2, “Ln(III) and Ga(III) metallacrown complexes” (The Regents of the University of Michigan, priority 2015, dated 2020)
